Experimental data published in patent publication US20180185347A1, “TETRAHYDROCYCLOPENTA[B]INDOLE COMPOUNDS AND PHOSPHODIESTERASE INHIBITORS FOR THE TREATMENT OF THE SIGNS AND SYMPTOMS OF BHP” (Transition Therapeutics (Ireland 2) Limited, priority 2016, published 2018).
Entries after “also recorded” stand apart in the source; their conditions may differ.

How the values were obtained:
PSA levels [1] = details: healthy volunteers, any time point or dose, data of WO 2016040234; cited from earlier work
orchidectomized rats [2] = experiment: Testosterone induced prostate / seminal vesicle growth in delayed ORX rat model; format: in vivo
Source text: (§1) Orchidectomized (ORX) and sham-operated Wistar male rats were used (orchidectomized at 8 weeks of age and allowed to waste for 4 weeks). […] Rats were randomized and placed into treatment groups (n=6) based on body weight. Route of administration for all groups except testosterone enanthate (TE was given sub-cutaneously) was oral. At the end of 2 weeks of daily rats were euthanized, weighed & tissue harvested. Levator ani, prostates, and seminal vesicles were collected from each animal. Results are plotted as means±SE.

PSA levels [3] = experiment: PSA in ED patients failing tadalafil (Study GPEC); format: in vivo, human; details: for PSA levels: ED patients, alone or with tadalafil, PSA about 2.0 ng/ml or more
Source text: The results of this study are illustrated in FIG. 7. […] (see FIG. 8 and FIG. 9).

[4] = Study GPBA single oral dose pharmacokinetics; details: human, in vivo, healthy subjects; for Cmax: geometric mean; for Tmax: median
PSA levels [5] = experiment: PSA in healthy subjects (Study GPBC, Phase 1); format: in vivo, human
Source text: The results of this study are illustrated in FIG. 6.

orchidectomized rats [6] = experiment: Prostate and seminal vesicle weight in delayed ORX rat model (SV/Prostate risk); details: for prostate or seminal vesical weights: delayed ORX rats, 2 or 8 weeks, doses up to 20-30 mg/kg
Source text: as §1

orchidectomized rats [7] = experiment: Levator ani / bulbocavernous muscle weight in delayed ORX rat model; format: in vivo
Source text: Results are plotted as means±SE.
Following the androgen deficiency in the ORX model, the Levator ani- and bulbocavernous muscle weights decreased in size.

Dog bioavailability = format: in vivo
rats = experiment: Rat toxicology program: prostate weight and atrophy; format: in vivo; parameters: key: “”: no effect observed
[8] = biological target: T1, human androgen receptor (hAR) (Homo sapiens, UniProt P10275); experiment: AR binding affinity (Ki)
T1 sequence (P10275 1-920): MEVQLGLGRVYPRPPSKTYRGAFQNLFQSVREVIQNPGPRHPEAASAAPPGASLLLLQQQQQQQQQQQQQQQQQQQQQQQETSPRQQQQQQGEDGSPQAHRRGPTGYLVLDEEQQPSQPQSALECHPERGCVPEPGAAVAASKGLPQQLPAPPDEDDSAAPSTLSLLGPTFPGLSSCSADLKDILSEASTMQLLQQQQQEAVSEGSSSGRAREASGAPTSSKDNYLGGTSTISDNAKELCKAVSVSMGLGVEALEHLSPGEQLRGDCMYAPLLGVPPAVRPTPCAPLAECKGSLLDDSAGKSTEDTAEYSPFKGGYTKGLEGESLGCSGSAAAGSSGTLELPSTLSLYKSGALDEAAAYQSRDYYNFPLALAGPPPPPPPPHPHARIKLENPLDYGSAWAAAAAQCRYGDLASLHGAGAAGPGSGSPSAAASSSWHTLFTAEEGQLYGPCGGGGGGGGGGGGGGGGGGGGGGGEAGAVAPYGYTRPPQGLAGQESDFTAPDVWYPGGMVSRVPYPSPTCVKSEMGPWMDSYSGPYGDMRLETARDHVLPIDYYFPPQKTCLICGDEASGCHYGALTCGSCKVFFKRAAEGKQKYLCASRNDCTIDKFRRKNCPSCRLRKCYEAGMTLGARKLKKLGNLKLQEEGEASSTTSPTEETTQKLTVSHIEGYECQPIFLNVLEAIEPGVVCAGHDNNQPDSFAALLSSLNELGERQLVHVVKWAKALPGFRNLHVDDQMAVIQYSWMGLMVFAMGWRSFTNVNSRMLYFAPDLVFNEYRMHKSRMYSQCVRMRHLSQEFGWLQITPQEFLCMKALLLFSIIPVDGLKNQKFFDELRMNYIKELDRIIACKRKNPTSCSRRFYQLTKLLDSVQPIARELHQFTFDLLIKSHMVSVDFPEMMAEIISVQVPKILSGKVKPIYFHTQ

dogs = experiment: Dog toxicology program: prostate weight and atrophy; format: in vivo; parameters: key to Prostate weight (mean % decrease): “”: no effect observed; details: for Prostate weight (mean % decrease): dog
[9] = QT / ECG assessment in clinical studies; format: in vivo, human; details: Study GPEC
[10] = Clinical safety and laboratory parameters; details: for hemoglobin and hematocrit: any dose tested, 12 weeks

CC(C)OC(=O)N[C@H]1Cc2c(n(Cc3ccccn3)c3ccc(C#N)cc23)C1 [compound of Formula II, (S)-(7-cyano-4-pyridin-2-ylmethyl-1,2,3,4-tetrahydro-cyclopenta[b]indol-2-yl)-carbamic acid isopropyl ester]
PSA levels, change from baseline vs placebo (PSA levels [1]): no significant changes from baseline | prostate weights, Abs(Dif)-LSD vs ORX + TE control (orchidectomized rats [2]; 1 mg/kg/d + 3 mg/kg/d): −0.11 | seminal vesicle wet weights, Abs(Dif)-LSD vs ORX + TE control (orchidectomized rats [2]; 1 mg/kg/d + 3 mg/kg/d): −0.34 | prostate weights, Abs(Dif)-LSD vs ORX + TE control (orchidectomized rats [2]; 1 mg/kg/d + 10 mg/kg/d): 0.036 | seminal vesicle wet weights, Abs(Dif)-LSD vs ORX + TE control (orchidectomized rats [2]; 1 mg/kg/d + 10 mg/kg/d): 0.078 | prostate weights, Abs(Dif)-LSD vs ORX + TE control (orchidectomized rats [2]; 1 mg/kg/d + 30 mg/kg/d): 0.025 | prostate and seminal vesical weights normalized to body weight compared to TE alone (orchidectomized rats [2]; ORX rat, TE 1 mg/kg/d + 3, 10 and 30 mg/kg/d, 2 weeks): decreasing prostate weight and seminal vesical weights; also recorded: reduced testosterone induced effects on prostate size | PSA levels (PSA levels [3]; listed as OPK88004): significant reduction in PSA levels | PSA levels (PSA levels [3]; listed as OPK-88004): decrease in PSA levels | PSA (PSA levels [3]; Study GPEC, 1 mg and 5 mg for 12 weeks): not associated with increases in PSA | Cmax ([4]; single oral dose 5 mg): 25.9 ng/mL | Tmax ([4]; single oral dose 5 mg): 5 h | Cmax ([4]; single oral dose 25 mg): 123 ng/mL | Tmax ([4]; single oral dose 25 mg): 4 h | Cmax ([4]; single oral dose 250 mg): 589 ng/mL | Tmax ([4]; single oral dose 250 mg): 5 h | Cmax ([4]; single oral dose 500 mg): 817 ng/mL | Tmax ([4]; single oral dose 500 mg): 4 h | Cmax ([4]; single oral dose 1000 mg): 910 ng/mL | Tmax ([4]; single oral dose 1000 mg): 4.5 h | PSA test, effect on the prostate (PSA levels [5]; Study GPBC, healthy subjects, 1 mg to 75 mg daily for 28 days): neutral to negative effect (decreasing PSA) | PSA (PSA levels [5]; clinical studies, any dose level (up to 75 mg doses)): No increases in PSA were observed | changes in the prostate of orchidectomized rats (orchidectomized rats [6]; 30 mg/kg, the highest dose examined): did not induce changes | prostate or seminal vesical weights (orchidectomized rats [6]): had no effect; also recorded: minimal accrual SV/Prostate risk | prostate or seminal vesical weights (orchidectomized rats [6]; listed as TT701): minimal accrual SV/Prostate risk | ED50 (orchidectomized rats [7]; Rattus norvegicus, read-out: ED50 for the levator ani muscle): 1 to 3 mg/kg | Levator ani- and bulbocavernous muscle weights (orchidectomized rats [7]; delayed ORX rat, 8 weeks, 1 to 3 mg/kg/day): increased significantly | bioavailability (Dog bioavailability; in vivo, read-out: Dog F %): 58% | Dog F % (Dog bioavailability; listed as TT701): 58% | Prostate weight (mean % decrease) (rats; 1+ months, 15 mg/kg/day): “” | Prostate weight (mean % decrease) (rats; 1+ months, 150 mg/kg/day): “” | Prostate weight (mean % decrease) (rats; 1+ months, 1500 mg/kg/day): “” | Prostate weight (mean % decrease) (rats; 6+ months, 15 mg/kg/day): “” | Prostate weight (mean % decrease) (rats; 6+ months, 150 mg/kg/day): ^↓30% | Prostate weight (mean % decrease) (rats; 6+ months, 1500 mg/kg/day): ^↓34% | Prostate weight (mean % decrease) (rats; Male Fertility (3 months), 3 mg/kg/day): “” | Prostate weight (mean % decrease) (rats; Male Fertility (3 months), 30 mg/kg/day): ^↓23% | Prostate weight (mean % decrease) (rats; Male Fertility (3 months), 1000 mg/kg/day): ^↓39% | binding affinity for hAR compared to other nuclear hormone receptors [8]: > 500 fold | Prostate weight (mean % decrease) (dogs; 1+ months, 3 mg/kg/day): “” | Prostate weight (mean % decrease) (dogs; 1+ months, 30 mg/kg/day): “” | Prostate weight (mean % decrease) (dogs; 1+ months, 150 mg/kg/day): “” | Prostate weight (mean % decrease) (dogs; 6+ months, 3 mg/kg/day): ^↓63% | Prostate weight (mean % decrease) (dogs; 6+ months, 30 mg/kg/day): ^↓66% | Prostate weight (mean % decrease) (dogs; 6+ months, 150 mg/kg/day): ^↓75% | Prostate weight (mean % decrease) (dogs; 12 months, 3 mg/kg/day): ^↓60% | Prostate weight (mean % decrease) (dogs; 12 months, 10 mg/kg/day): ^↓62% | Prostate weight (mean % decrease) (dogs; 12 months, 100 mg/kg/day): ^↓80% | decreases in prostate weight (dogs; dogs, by 3 months (so in the source)): 60-75% | decrease in prostate size (dogs; normal dogs, six-month treatment period): 60% | ECG data [9]: did not show evidence of clinically meaningful changes | HDL cholesterol levels and apolipoprotein A1 ([10]; Study GPEC): decreased | testosterone ([10]; Study GPEC, 12-week, elderly men, with reduction of SHBG): clinically meaningful decrease | systolic blood pressure, diastolic blood pressure, or heart rate ([10]; clinical studies): did not yield any significant changes | decrease in the levels of endogenous testosterone ([10]; clinical studies in patients with androgen deficiency): 20-30% | total bilirubin, GGT, or alkaline phosphatase ([10]; clinical studies, any dose): no significant increases | hemoglobin and hematocrit ([10]; clinical): no increases | hemoglobin and hematocrit ([10]; clinical, listed as TT701): no change in Hematocrit | immunotoxicity safety signal ([10]; clinical, to date): no immunotoxicity safety signal has been observed | dose demonstrated safe in clinical studies ([10]; human, in vivo): up to 1000 mgs/day | decrease in HDL ([10]; patients, 5 mg for 12 weeks): 20% | liver transaminases (AST or ALT) ([10]; phase 2 study, three subjects, two ≥2×ULN, one ≥3×ULN): transient abnormal AST or ALT
